# Results: US12569468B2, “Use of palovarotene in treatment against HBV virus” (YANG SHENG TANG COMPANY, LTD., priority 2020, dated 2026)
# Tests used:
# HBV [1] = experiment: Therapeutic effect on human primary hepatocytes infected by HBV (drug from day 8 after infection); format: cell-based, hepatitis B virus; conditions: drug added 8 days after infection
# Experimental: The drug to be tested and the positive control drug were diluted with medium H to the required concentrations, and to the blank group the same volume of medium H without drug was added.
# Primary hepatocytes were isolated from humanized mice transplanted with primary human hepatocytes through perfusion technique, directly cultured in 24-well plates after counting (5×10^5 primary hepatocytes per well), and medium H was added to maintain hepatocyte morphology. Infection with HBV was performed 24 hours after culturing, the amount of HBV for infection in each well was 2000 MOI. Before infection, HBV was first dissolved in medium I to obtain HBV solution, and the infection volume was 250 μL/well. During infection, the cell supernatant was first removed by suction, the HBV solution was added to the cells, the cells were incubated for 24 hours, then the supernatant was collected as the sample of Day 0, and then the supernatant was collected every two days for detection, fresh medium H was used for replacement. On the 8th day, fresh drug-containing medium H was used for replacement to start the drug treatment, until the 14th day, all the supernatant and the cells were collected for relevant detection. The detection items included: HBsAg, HBeAg, HBV DNA, HBV cccDNA, and for the detection method, please refer to Example 1.
# HBV [2] = experiment: HBcAg immunofluorescence detection in infected HepG2-hNTCP 2B1; format: cell-based, hepatitis B virus; conditions: HepG2-hNTCP 2B1 cells after infection; 5 μM, day 6 to day 12
# Experimental: Southern blot experiment was carried out on a 10 cm^2 culture plate. About 5×10^6 HepG2-hNTCP 2B1 cells were plated in each 10 cm^2 culture plate, and medium B was added. After the cells adhered, medium A was used for replacement to perform the induction with Doxycycline during the whole experiment. HBV infection was performed 4 days after the induction with Doxycycline, and the amount of HBV for infection was 1000 MOI. Before infection, HBV was diluted in medium C to obtain HBV solution, and the infection volume was 5 mL. During infection, the cell supernatant was first removed by suction, the HBV solution was added to the cells, the cells were incubated for 24 hours, then the supernatant was collected as the sample of Day 0. Then the cells were washed three times with PBS, and fresh medium A was used for replacement. After that, the supernatant was collected every two days for detection, fresh medium A was used for replacement. […]
# The HBcAg immunofluorescence staining involved in this experiment was performed directly on adherent cells. […] Photographing: Photographing was performed with a high-content confocal microscope (PerkinElmer, Operetta CLS), and the mean fluorescence intensity of green fluorescence was analyzed.
# [3] = to day 14, p<0.05, more obvious at 5 μM and 25 μM
structure (smiles),measurement,setting,value
CC1(C)CCC(C)(C)c2cc(Cn3cccn3)c(/C=C/c3ccc(C(=O)O)cc3)cc21 [Palovarotene],HBV cccDNA,"HBV [1]; to day 14, 25 μM, p<0.01",significant inhibitory effects
same,HBV DNA,"HBV [1]; to day 14, 25 μM, p<0.05",significant inhibitory effects
same,level of HBeAg in the cell supernatant,HBV [1]; [3],significantly inhibited
same,level of HBsAg in the cell supernatant,HBV [1]; [3],significantly inhibited
same,positive rate of HBcAg (immunofluorescence),HBV [2],significantly reduce the positive rate
